From US20040162221A1, “Pyrazole derivatives and herbicides containing the same” (IDEMITSU KOSAN CO., LTD., priority 1998, published 2004)

Legend:
common lambsquaters = assay: Upland pre-emergence treatment test, common lambsquaters; type: in vivo, common lambsquaters (Chenopodium album); conditions: pre-emergence soil surface spray, 80 g/ha, 20th day after treatment, greenhouse
Excerpt: (§1) 97 Parts by weight of talc (trade name: Zeaklite, supplied by Zeaklite Industry) as a carrier, 1.5 parts by weight of alkylarylsulfonic acid salt (trade name: Neoplex, supplied by Kao-Atlas K.K.) as a surfactant and 1.5 parts by weight of a nonionic and anionic surfactant (trade names Sorpol 800A, supplied by Toho Chemical Co., Ltd.) were uniformly pulverized and mixed to prepare a carrier for a wettable powder.
(§2) 90 Parts by weight of the above carrier for a wettable powder and 10 parts by weight of one of the compounds of the present invention were uniformly pulverized and mixed to obtain herbicides. Further, in Comparative Herbicide Examples, comparative herbicides were also prepared from the following compounds (A) and (B) in the same manner.
(§3) Herbicidal efficacy and phytotoxicity to crops were determined on the basis of the ratio of remaining plant weight to plant weight in non-treated plot=(remaining plant weight in treated plot/plant weight in non-treated-plot)×100. The ratings were applied to the following biological tests.
(§4) Seeds of weeds such as velvetleaf, common lambsquaters, redroot pigweed, common ragweed, green foxtail and large crabgrass and seeds of corn were sown in 1/5,000-are Wagner pots filled with upland soil, and covered with upland soil. Then, a predetermined amount of the herbicide prepared in the above (1) was suspended in water, and the suspension was uniformly sprayed onto the soil surface at a rate of 2,000 liters/hectare. Then, the seeds were grown in a greenhouse, and on the 20th day after the treatment, the herbicide was evaluated for herbicidal efficacy and phytotoxicity to corn on the basis of the ratings shown in (2).

corn [1] = assay: Upland pre-emergence treatment test, phytotoxicity to corn; type: in vivo; conditions: pre-emergence soil surface spray, 80 g/ha, 20th day after treatment, greenhouse
Excerpt: as §1, §2, §3, §4

common ragweed [2] = assay: Upland pre-emergence treatment test, common ragweed; type: in vivo, common ragweed (Ambrosia artemisilfolia); conditions: pre-emergence soil surface spray, 80 g/ha, 20th day after treatment, greenhouse
Excerpt: as §1, §2, §3, §4

velvetleaf [3] = assay: Upland pre-emergence treatment test, velvetleaf; type: in vivo, velvetleaf (Abutilon theophrasti); conditions: pre-emergence soil surface spray, 80 g/ha, 20th day after treatment, greenhouse
Excerpt: as §1, §2, §3, §4

large crabgrass [4] = assay: Upland pre-emergence treatment test, large crabgrass; type: in vivo; conditions: pre-emergence soil surface spray, 80 g/ha, 20th day after treatment, greenhouse
Excerpt: as §1, §2, §3, §4

redroot pigweed [5] = assay: Upland pre-emergence treatment test, redroot pigweed; type: in vivo, redroot pigweed (Amaranthus retroflexus); conditions: pre-emergence soil surface spray, 80 g/ha, 20th day after treatment, greenhouse
Excerpt: as §1, §2, §3, §4

green foxtail [6] = assay: Upland pre-emergence treatment test, green foxtail; type: in vivo, green foxtail (Setaria viridis); conditions: pre-emergence soil surface spray, 80 g/ha, 20th day after treatment, greenhouse
Excerpt: as §1, §2, §3, §4

green foxtail [7] = assay: Upland post-emergence treatment test, green foxtail; type: in vivo, green foxtail (Setaria viridis); conditions: post-emergence spray at 3-4 leaf stage, 80 g/ha, 30th day after treatment, greenhouse
Excerpt: as §1, §2, §3
(§5) Seeds of weeds velvetleaf, redroot pigweed, common ragweed, green foxtail and large crabgrass and seeds of corn were sown in 1/5,000-are Wagner pots filled with upland soil, and covered with upland soil. The seeds were grown in a greenhouse, and at the stage of 3˜4 leaves of these plants, a predetermined amount of the herbicide prepared in the above (1) was suspended in water, and the suspension was uniformly sprayed onto leaf and stalk portions at a rate of 2,000 liters/hectare. Then, the plants were grown in the greenhouse, and on the 30th day after the treatment, the herbicide was evaluated for herbicidal efficacy and phytotoxicity to the corn on the basis of the ratings shown in (2).

corn [8] = assay: Upland post-emergence treatment test, phytotoxicity to corn; type: in vivo; conditions: post-emergence spray at 3-4 leaf stage, 80 g/ha, 30th day after treatment, greenhouse
Excerpt: as §1, §2, §3, §5

common ragweed [9] = assay: Upland post-emergence treatment test, common ragweed; type: in vivo, common ragweed (Ambrosia artemisilfolia); conditions: post-emergence spray at 3-4 leaf stage, 80 g/ha, 30th day after treatment, greenhouse
Excerpt: as §1, §2, §3, §5

velvetleaf [10] = assay: Upland post-emergence treatment test, velvetleaf; type: in vivo, velvetleaf (Abutilon theophrasti); conditions: post-emergence spray at 3-4 leaf stage, 80 g/ha, 30th day after treatment, greenhouse
Excerpt: as §1, §2, §3, §5

large crabgrass [11] = assay: Upland post-emergence treatment test, large crabgrass; type: in vivo; conditions: post-emergence spray at 3-4 leaf stage, 80 g/ha, 30th day after treatment, greenhouse
Excerpt: as §1, §2, §3, §5

redroot pigweed [12] = assay: Upland post-emergence treatment test, redroot pigweed; type: in vivo, redroot pigweed (Amaranthus retroflexus); conditions: post-emergence spray at 3-4 leaf stage, 80 g/ha, 30th day after treatment, greenhouse
Excerpt: as §1, §2, §3, §5
Note: ranges in brackets are in %.

Question: `CCC(=O)Oc1c(C(=O)c2ccc3c(c2C)C(C)(C)CS3(=O)=O)cnn1C` [Compound 30, 5-(1′-methyl-5′-n-propionyloxypyrazol-4′-yl)carbonyl-3,3,4-trimethyl-2,3-dihydrobenzothiophene-1,1-dioxide] was tested. Which “Herbicidal Efficacy BB = Common lambsquaters” value (common lambsquaters) did it give?
Answer: 5 (0)

Question: What about the “Phytotoxicity Corn” value (corn [1]) of the same compound?
Answer: − (100)

Question: What about the “Herbicidal Efficacy DD = Common ragweed” value (common ragweed [2]) of the same compound?
Answer: 5 (0)

Question: And the “Herbicidal Efficacy AA = Velvetleaf” value (velvetleaf [3])?
Answer: 4 (1-20)

Question: What about the “Herbicidal Efficacy FF = Large crabgrass” value (large crabgrass [4]) of the same compound?
Answer: 5 (0)

Question: And the “Herbicidal Efficacy CC = Rough Pigweed” value (redroot pigweed [5])?
Answer: 5 (0)

Question: And the “Herbicidal Efficacy EE = Green foxtail” value (green foxtail [6])?
Answer: 5 (0)

Question: For `Cc1c(C(=O)c2cnn(C)c2OC(=O)C2CCCCC2)ccc2c1C(C)(C)CS2(=O)=O` [Compound 37], which “Herbicidal Efficacy EE = Green foxtail” value (green foxtail [7]) is on record?
Answer: 5 (0)

Question: And the “Herbicidal Efficacy BB = Common lambsquaters” value (common lambsquaters)?
Answer: 5 (0)

Question: And the “Phytotoxicity Corn” value (corn [8])?
Answer: − (100)

Question: And the “Phytotoxicity Corn” value (corn [1])?
Answer: − (100)

Question: And the “Herbicidal Efficacy DD = Common ragweed” value (common ragweed [9])?
Answer: 5 (0)

Question: And the “Herbicidal Efficacy DD = Common ragweed” value (common ragweed [2])?
Answer: 5 (0)

Question: What about the “Herbicidal Efficacy AA = Velvetleaf” value (velvetleaf [3]) of the same compound?
Answer: 5 (0)

Question: What about the “Herbicidal Efficacy FF = Large crabgrass” value (large crabgrass [4]) of the same compound?
Answer: 5 (0)

Question: And the “Herbicidal Efficacy CC = Rough Pigweed” value (redroot pigweed [5])?
Answer: 5 (0)

Question: What about the “Herbicidal Efficacy EE = Green foxtail” value (green foxtail [6]) of the same compound?
Answer: 5 (0)

Question: What about the “Herbicidal Efficacy AA = Velvetleaf” value (velvetleaf [10]) of the same compound?
Answer: 5 (0)

Question: What about the “Herbicidal Efficacy FF = Large crabgrass” value (large crabgrass [11]) of the same compound?
Answer: 5 (0)

Question: What about the “Herbicidal Efficacy CC = Redroot Pigweed” value (redroot pigweed [12]) of the same compound?
Answer: 5 (0)

Question: For `Cc1c(C(=O)c2cnn(C)c2OC(=O)c2ccccc2)ccc2c1C(C)(C)CS2(=O)=O` [Compound 39], which “Herbicidal Efficacy EE = Green foxtail” value (green foxtail [7]) is on record?
Answer: 5 (0)

Question: What about the “Herbicidal Efficacy BB = Common lambsquaters” value (common lambsquaters) of the same compound?
Answer: 5 (0)

Question: And the “Phytotoxicity Corn” value (corn [8])?
Answer: − (100)

Question: And the “Phytotoxicity Corn” value (corn [1])?
Answer: − (100)

Question: And the “Herbicidal Efficacy DD = Common ragweed” value (common ragweed [9])?
Answer: 5 (0)

Question: What about the “Herbicidal Efficacy DD = Common ragweed” value (common ragweed [2]) of the same compound?
Answer: 5 (0)

Question: What about the “Herbicidal Efficacy AA = Velvetleaf” value (velvetleaf [3]) of the same compound?
Answer: 5 (0)

Question: And the “Herbicidal Efficacy FF = Large crabgrass” value (large crabgrass [4])?
Answer: 5 (0)

Question: What about the “Herbicidal Efficacy CC = Rough Pigweed” value (redroot pigweed [5]) of the same compound?
Answer: 5 (0)

Question: And the “Herbicidal Efficacy EE = Green foxtail” value (green foxtail [6])?
Answer: 5 (0)

Question: And the “Herbicidal Efficacy AA = Velvetleaf” value (velvetleaf [10])?
Answer: 5 (0)

Question: What about the “Herbicidal Efficacy FF = Large crabgrass” value (large crabgrass [11]) of the same compound?
Answer: 5 (0)

Question: What about the “Herbicidal Efficacy CC = Redroot Pigweed” value (redroot pigweed [12]) of the same compound?
Answer: 5 (0)

Question: For `Cc1c(C(=O)c2cnn(C)c2OCC(=O)c2ccccc2)ccc2c1C(C)(C)CS2(=O)=O` [Compound 49, 5-(1′-methyl-5′-phenacyloxypyrazol-4′-yl)carbonyl-3,3,4-trimethyl-2,3-dihydrobenzothiophene-1,1-dioxide], which “Herbicidal Efficacy EE = Green foxtail” value (green foxtail [7]) is on record?
Answer: 5 (0)

Question: And the “Herbicidal Efficacy BB = Common lambsquaters” value (common lambsquaters)?
Answer: 5 (0)

Question: And the “Phytotoxicity Corn” value (corn [8])?
Answer: − (100)

Question: And the “Phytotoxicity Corn” value (corn [1])?
Answer: − (100)

Question: What about the “Herbicidal Efficacy DD = Common ragweed” value (common ragweed [9]) of the same compound?
Answer: 5 (0)

Question: What about the “Herbicidal Efficacy DD = Common ragweed” value (common ragweed [2]) of the same compound?
Answer: 5 (0)

Question: And the “Herbicidal Efficacy AA = Velvetleaf” value (velvetleaf [3])?
Answer: 5 (0)

Question: And the “Herbicidal Efficacy FF = Large crabgrass” value (large crabgrass [4])?
Answer: 5 (0)

Question: And the “Herbicidal Efficacy CC = Rough Pigweed” value (redroot pigweed [5])?
Answer: 5 (0)

Question: And the “Herbicidal Efficacy EE = Green foxtail” value (green foxtail [6])?
Answer: 5 (0)

Question: What about the “Herbicidal Efficacy AA = Velvetleaf” value (velvetleaf [10]) of the same compound?
Answer: 5 (0)

Question: And the “Herbicidal Efficacy FF = Large crabgrass” value (large crabgrass [11])?
Answer: 5 (0)

Question: What about the “Herbicidal Efficacy CC = Redroot Pigweed” value (redroot pigweed [12]) of the same compound?
Answer: 5 (0)

Question: What does the source list for `CCN(CC)CC.Cc1c(C(=O)c2cnn(C)c2O)ccc2c1C(C)(C)CS2(=O)=O` [Compound 50, 5-(1′-methyl-5′-hydroxypyrazol-4′-yl)carbonyl-3,3,4-trimethyl-2,3-dihydrobenzothiophene-1,1-dioxide triethylamine salt]?
Answer: Herbicidal Efficacy EE = Green foxtail (green foxtail [7]): 5 (0); Herbicidal Efficacy BB = Common lambsquaters (common lambsquaters): 5 (0); Phytotoxicity Corn (corn [8]): − (100); Phytotoxicity Corn (corn [1]): − (100); Herbicidal Efficacy DD = Common ragweed (common ragweed [9]): 5 (0); Herbicidal Efficacy DD = Common ragweed (common ragweed [2]): 4 (1-20); Herbicidal Efficacy AA = Velvetleaf (velvetleaf [3]): 5 (0); Herbicidal Efficacy FF = Large crabgrass (large crabgrass [4]): 5 (0); Herbicidal Efficacy CC = Rough Pigweed (redroot pigweed [5]): 5 (0); Herbicidal Efficacy EE = Green foxtail (green foxtail [6]): 5 (0); Herbicidal Efficacy AA = Velvetleaf (velvetleaf [10]): 5 (0); Herbicidal Efficacy FF = Large crabgrass (large crabgrass [11]): 5 (0); Herbicidal Efficacy CC = Redroot Pigweed (redroot pigweed [12]): 5 (0)
